Test results taken from ChEMBL document CHEMBL1201862, “PubChem BioAssay data set” (2004).
Values joined by “and” are separate entries in the source; they are usually repeats but may differ in a detail not shown here. Equal values may be shown once. Active and inactive are the calls of the source.

Tests used:
[1] = target: T1, Protein RecA (Mycobacterium tuberculosis, UniProt P9WHJ3); assay: Fluorescence Cell-Free Homogeneous Dose Retest to Identify Inhibitors of RecA-Intein Splicing Activity. [Related pubchem assays (depositor defined):AID2097, AID2223, AID489010, AID492950]; assay type: functional
T1 sequence (P9WHJ3 whole entry): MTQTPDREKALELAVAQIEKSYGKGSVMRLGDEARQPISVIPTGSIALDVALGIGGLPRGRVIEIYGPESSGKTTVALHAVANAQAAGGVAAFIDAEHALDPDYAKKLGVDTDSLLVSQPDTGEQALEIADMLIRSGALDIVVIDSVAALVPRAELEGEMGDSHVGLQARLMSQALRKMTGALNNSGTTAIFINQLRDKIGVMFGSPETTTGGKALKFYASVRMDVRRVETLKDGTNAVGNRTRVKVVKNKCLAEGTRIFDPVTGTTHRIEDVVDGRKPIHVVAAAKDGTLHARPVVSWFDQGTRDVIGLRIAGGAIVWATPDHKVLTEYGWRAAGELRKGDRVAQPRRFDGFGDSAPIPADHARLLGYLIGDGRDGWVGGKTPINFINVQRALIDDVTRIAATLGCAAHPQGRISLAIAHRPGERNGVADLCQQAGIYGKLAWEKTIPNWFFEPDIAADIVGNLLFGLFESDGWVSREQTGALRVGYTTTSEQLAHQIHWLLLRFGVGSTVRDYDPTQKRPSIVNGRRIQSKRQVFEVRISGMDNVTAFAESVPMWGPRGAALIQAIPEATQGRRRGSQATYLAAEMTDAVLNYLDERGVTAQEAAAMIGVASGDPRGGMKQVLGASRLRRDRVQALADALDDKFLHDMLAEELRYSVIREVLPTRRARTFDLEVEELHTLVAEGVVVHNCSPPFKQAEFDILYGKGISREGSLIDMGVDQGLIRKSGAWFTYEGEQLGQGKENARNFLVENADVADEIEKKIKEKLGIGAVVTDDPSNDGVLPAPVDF

[2] = target: T2, Replicative DNA helicase DnaB (Mycobacterium tuberculosis, UniProt P9WMR3); assay: DnaB intein splicing inhibitors, dose response, biochemical, cell-free fluorescence (AID 449749); assay type: functional
T2 sequence (P9WMR3 whole entry): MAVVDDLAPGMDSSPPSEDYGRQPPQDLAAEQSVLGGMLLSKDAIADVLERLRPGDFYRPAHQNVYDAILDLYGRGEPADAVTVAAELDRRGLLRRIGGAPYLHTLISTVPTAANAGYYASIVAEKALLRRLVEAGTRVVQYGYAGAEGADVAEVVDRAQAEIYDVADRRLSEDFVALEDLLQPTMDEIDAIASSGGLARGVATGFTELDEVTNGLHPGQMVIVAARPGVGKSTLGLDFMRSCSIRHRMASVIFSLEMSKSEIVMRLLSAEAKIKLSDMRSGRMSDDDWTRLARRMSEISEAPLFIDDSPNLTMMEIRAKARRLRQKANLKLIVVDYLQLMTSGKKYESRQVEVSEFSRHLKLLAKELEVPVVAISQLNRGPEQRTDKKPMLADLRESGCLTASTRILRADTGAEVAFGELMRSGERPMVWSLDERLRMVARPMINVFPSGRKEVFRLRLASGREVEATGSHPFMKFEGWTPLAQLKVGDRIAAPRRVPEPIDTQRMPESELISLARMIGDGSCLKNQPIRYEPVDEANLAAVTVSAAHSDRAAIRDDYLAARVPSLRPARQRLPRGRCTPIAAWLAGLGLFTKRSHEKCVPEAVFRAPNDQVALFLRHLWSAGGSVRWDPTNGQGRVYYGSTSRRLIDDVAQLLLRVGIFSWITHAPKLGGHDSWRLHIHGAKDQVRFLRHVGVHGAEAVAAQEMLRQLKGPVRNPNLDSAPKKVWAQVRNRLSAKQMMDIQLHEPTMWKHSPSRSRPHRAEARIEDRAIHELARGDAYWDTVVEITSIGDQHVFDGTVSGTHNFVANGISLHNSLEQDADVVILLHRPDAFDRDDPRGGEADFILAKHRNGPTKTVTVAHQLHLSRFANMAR

[3] = cytotoxicity toward NIH3T3 fibroblasts, dose response, counter-screen, cell-based, ATP luminescence, mouse fibroblasts (AID 2010); assay type: functional;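 also: cells exposed to compound for about 90 hours before reading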
[4] = target: T3, Cytochrome P450 1A2 (Homo sapiens, UniProt P05177);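 also: PubChem cytochrome P450 panel assay, CYP1A2 panel member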
T3 sequence (P05177 whole entry): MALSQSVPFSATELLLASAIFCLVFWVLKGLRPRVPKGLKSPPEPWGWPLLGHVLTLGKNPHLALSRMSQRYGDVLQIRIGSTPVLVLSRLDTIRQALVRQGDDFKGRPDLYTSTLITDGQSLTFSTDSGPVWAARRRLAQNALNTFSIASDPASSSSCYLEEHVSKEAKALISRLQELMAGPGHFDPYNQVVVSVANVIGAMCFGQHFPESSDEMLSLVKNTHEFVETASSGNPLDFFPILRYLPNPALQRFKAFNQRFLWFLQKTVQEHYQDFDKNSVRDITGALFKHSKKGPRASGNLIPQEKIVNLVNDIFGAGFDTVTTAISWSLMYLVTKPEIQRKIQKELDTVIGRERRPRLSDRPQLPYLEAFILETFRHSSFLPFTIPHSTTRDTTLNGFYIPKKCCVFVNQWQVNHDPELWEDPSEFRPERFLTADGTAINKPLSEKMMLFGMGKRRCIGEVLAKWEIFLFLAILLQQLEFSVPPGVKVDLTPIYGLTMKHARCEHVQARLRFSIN

[5] = target: Cytochrome P450 2C19 (Homo sapiens, UniProt P33261); assay: Cytochrome panel assay with activity outcomes. Panel member name: p450-cyp2c19 Compounds with AC50 equal or less than 10 uM are considered active; assay type: functional
[6] = inhibitors of intracellular T. cruzi replication, confirmation, NIH3T3 host cells, beta-gal luminescence (AID 2044); assay type: functional, cell-based;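 also: intracellular parasites grown in NIH/3T3 mouse fibroblasts as host cells; luminescent beta-galactosidase reporter signal from transgenic T. cruzi replicating inside host cells; inhibitors lower the luminescence signal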
[7] = target: Cytochrome P450 2C9 (Homo sapiens, UniProt P11712)
[8] = target: Cytochrome P450 2D6 (Homo sapiens, UniProt P10635);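 also: CYP2D6 member of a cytochrome P450 panel assay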
[9] = target: Cytochrome P450 3A4 (Homo sapiens, UniProt P08684);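 also: CYP3A4 tested as one member of a cytochrome P450 panel screen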
[10] = target: T4, Corticotropin-releasing factor receptor 2/Corticotropin-releasing factor-binding protein (Homo sapiens, UniProt P24387+Q13324); assay: Dose Response confirmation of uHTS hits for small molecule antagonists of the CRF-binding protein and CRF-R2 receptor complex.; assay type: functional; details: read-out: IC50_Mean
T4 sequence (Q13324 whole entry): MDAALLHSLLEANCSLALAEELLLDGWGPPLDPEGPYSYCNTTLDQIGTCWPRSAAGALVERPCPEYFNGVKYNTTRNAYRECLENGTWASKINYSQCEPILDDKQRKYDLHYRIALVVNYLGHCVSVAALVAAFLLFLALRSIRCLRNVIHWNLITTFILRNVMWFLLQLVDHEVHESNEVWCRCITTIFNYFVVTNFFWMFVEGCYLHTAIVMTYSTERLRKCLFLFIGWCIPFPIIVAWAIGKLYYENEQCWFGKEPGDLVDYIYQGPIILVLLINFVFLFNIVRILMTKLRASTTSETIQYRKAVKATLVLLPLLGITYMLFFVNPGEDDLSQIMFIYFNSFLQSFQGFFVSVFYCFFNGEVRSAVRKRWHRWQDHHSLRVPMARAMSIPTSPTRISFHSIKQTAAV
T4 sequence (P24387 whole entry): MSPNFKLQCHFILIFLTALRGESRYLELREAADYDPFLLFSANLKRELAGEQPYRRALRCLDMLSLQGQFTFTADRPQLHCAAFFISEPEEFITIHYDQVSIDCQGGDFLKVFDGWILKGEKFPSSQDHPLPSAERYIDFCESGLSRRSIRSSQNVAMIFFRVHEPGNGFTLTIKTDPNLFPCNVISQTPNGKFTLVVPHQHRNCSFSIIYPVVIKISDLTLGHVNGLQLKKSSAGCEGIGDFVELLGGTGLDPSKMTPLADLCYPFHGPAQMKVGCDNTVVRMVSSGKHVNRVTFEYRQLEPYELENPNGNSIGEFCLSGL

[11] = target: T4, Corticotropin-releasing factor receptor 2/Corticotropin-releasing factor-binding protein; assay: activators of CRF receptor 2 with binding protein – uHTS hits, confirmation (AID 602473); assay type: functional; details: read-out: EC50_Mean

Sequence of Cytochrome P450 2C19 (P33261 whole entry): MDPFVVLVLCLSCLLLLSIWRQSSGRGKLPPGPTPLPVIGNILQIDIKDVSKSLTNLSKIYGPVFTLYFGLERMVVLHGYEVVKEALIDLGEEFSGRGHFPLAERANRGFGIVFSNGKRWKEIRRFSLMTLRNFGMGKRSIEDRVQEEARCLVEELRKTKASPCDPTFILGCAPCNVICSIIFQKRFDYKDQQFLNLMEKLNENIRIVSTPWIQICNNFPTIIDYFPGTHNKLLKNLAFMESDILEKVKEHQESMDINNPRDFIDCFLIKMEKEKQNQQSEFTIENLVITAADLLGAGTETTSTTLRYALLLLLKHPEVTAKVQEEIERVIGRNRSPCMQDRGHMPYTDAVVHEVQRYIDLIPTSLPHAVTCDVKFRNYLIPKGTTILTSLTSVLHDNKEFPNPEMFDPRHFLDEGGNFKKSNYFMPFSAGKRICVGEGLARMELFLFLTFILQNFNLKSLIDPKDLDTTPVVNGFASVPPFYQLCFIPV
Sequence of Cytochrome P450 2D6 (P10635 whole entry): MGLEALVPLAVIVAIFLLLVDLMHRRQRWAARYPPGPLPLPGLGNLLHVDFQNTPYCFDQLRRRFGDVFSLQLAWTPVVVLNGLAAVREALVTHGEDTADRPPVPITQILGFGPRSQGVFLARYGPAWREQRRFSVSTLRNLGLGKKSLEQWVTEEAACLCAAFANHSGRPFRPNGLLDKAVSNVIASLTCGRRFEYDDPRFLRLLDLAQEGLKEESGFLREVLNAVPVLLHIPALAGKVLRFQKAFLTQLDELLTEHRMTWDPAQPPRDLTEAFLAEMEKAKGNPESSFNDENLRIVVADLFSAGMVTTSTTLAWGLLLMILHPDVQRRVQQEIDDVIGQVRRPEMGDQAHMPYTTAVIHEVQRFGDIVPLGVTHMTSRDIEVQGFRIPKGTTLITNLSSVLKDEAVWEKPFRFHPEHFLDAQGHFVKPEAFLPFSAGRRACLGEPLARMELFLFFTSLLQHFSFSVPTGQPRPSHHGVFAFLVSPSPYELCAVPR
Sequence of Cytochrome P450 3A4 (P08684 whole entry): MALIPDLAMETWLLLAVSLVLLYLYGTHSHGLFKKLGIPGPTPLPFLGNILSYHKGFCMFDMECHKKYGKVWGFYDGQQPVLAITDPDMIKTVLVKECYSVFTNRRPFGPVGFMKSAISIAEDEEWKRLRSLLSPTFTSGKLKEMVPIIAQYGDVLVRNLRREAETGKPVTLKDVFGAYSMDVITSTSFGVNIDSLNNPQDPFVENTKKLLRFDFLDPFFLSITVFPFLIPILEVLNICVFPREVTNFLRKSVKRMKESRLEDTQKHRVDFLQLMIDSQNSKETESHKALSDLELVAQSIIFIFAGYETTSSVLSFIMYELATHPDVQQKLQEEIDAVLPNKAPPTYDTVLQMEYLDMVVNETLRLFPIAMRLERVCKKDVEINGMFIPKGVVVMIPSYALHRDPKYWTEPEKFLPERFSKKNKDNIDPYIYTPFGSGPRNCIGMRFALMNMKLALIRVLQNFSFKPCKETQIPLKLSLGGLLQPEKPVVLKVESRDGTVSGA
Sequence of Cytochrome P450 2C9 (P11712 whole entry): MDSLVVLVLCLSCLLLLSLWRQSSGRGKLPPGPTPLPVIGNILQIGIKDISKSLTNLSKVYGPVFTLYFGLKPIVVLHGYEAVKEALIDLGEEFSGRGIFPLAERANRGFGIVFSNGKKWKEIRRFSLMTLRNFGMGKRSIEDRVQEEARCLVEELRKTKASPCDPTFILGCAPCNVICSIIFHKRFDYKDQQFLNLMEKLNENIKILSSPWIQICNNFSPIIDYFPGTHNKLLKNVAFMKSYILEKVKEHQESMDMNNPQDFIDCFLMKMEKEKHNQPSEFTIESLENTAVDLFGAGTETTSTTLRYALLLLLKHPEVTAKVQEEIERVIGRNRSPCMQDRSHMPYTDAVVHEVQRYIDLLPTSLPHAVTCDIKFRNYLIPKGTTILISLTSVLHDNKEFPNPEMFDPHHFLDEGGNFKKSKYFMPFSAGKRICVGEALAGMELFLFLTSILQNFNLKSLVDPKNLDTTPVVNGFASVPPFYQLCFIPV

COc1ccc(OC)c(-c2[nH]nc3c2C(c2ccco2)C(C#N)=C(N)O3)c1 (stereo unspecified)
EC50 [1]: 3.22 µM (active) | AC50 [2]: 185 µM (active)

CCCn1c(=O)[nH]c(=O)c2c1nc(-c1ccc(OC(F)F)c(OC)c1)n2CCOC
EC50 [1]: > 380 µM (inactive) | AC50 [2]: > 380 µM (inactive)

Cc1ccc(C)c(NC(=S)N(CCc2nc3cc(C)c(C)cc3[nH]2)Cc2cccnc2)c1
EC50 [3]: > 60 µM (not active) | AC50 [4]: 4.47 µM (inconclusive) | AC50 ([5]; read-out: AC50): 2 µM (inconclusive) | EC50 [6]: 0.813 µM (active)

O=C(CCn1nc(-c2ccc(Cl)cc2)c2ccccc2c1=O)NCCN1CCOCC1
AC50 [7]: 17.8 µM (inconclusive) | AC50 ([5]; read-out: AC50): 28.2 µM (inconclusive) | AC50 [8]: 15.8 µM (inconclusive)

CSC1=N/C(=C\c2ccc3c(c2)OCO3)C(=O)S1
AC50 [9]: 7.94 µM (inconclusive)

O=C(c1ccncc1)N1CCC2(CC1)CCN(c1ccccn1)CC2
AC50 [4]: 12.6 µM (inconclusive) | AC50 ([5]; read-out: AC50): 1 µM (inconclusive) | AC50 [8]: 31.6 µM (inconclusive)

C/C(CC(=O)Nc1ccccn1)=N\NC(=O)c1ccncc1
EC50 [1]: 1.94 µM (active) | AC50 [2]: 2.86 µM (active)

C/C(=N\NC(=O)c1cccc(C)c1)c1cccc(NC(=O)c2ccco2)c1
AC50 [4]: 14.1 µM (inconclusive) | AC50 [7]: 39.8 µM (inconclusive) | AC50 ([5]; read-out: AC50): 39.8 µM (inconclusive)

CCOC(=O)N1CCN(C(=O)c2ccc3nc(SCc4ccc(F)cc4)n(C)c3c2)CC1
IC50 [10]: > 47.1 µM (inactive) | EC50 [11]: > 53 µM (inactive) | AC50 [9]: 39.8 µM (inconclusive)

O=C(NCCNS(=O)(=O)c1ccc(Cl)cc1)c1cc(OCC(F)(F)F)ccc1OCC(F)(F)F
AC50 [4]: 2.82 µM (inconclusive) | AC50 [7]: 0.0251 µM (inconclusive) | AC50 [8]: 3.16 µM (inconclusive) | AC50 [9]: 7.08 µM (inconclusive)

Cc1ccc(C2C(C#N)=C(N)Oc3[nH]nc(-c4ccccc4)c32)o1 (stereo unspecified)
EC50 [1]: 19.3 µM (active) | AC50 [2]: 4.75 µM (active)

COc1cccc(Cn2c(=O)c(-c3cccc(F)c3)nc3cncnc32)c1
AC50 [8]: 20 µM (inconclusive) | AC50 [9]: 7.94 µM (inconclusive)

CO[C@@H]1/C=C\CC(=O)N[C@@H](C)C(=O)OC[C@@H](OC)[C@H](C)/C=C\CC(=O)OC[C@H]1C
AC50 [9]: 3.98 µM (inconclusive)

CC1=NC2(O)c3ccccc3C(=O)C2(O)/C1=C(/O)OC(C)C (stereo unspecified)
EC50 [1]: 14.7 µM (active) | AC50 [2]: 21.2 µM (active)

Cc1cc(NC(=O)CSc2ccc3nnc(-c4ccc(F)cc4)n3n2)no1
AC50 [7]: 25.1 µM (inconclusive) | AC50 [9]: 14.1 µM (inconclusive)

CN(C)Cc1ccccc1-c1nccc(N(C)Cc2ccco2)n1
AC50 [9]: 31.6 µM (inconclusive)

CCOc1ccc(C2=Nn3c(nnc3-c3ccco3)SC2)cc1
AC50 [9]: 15.8 µM (inconclusive)

CC[C@@]1(O)C(=O)COc2c1cc1n(c2=O)Cc2c-1nc1cccc(C(C)C)c1c2[Si](C)(C)C
AC50 [9]: 15.8 µM (inconclusive)

COc1cccc(CN2CCN(Cc3ccc(C#CC(C)(C)O)s3)CC2CCO)c1 (stereo unspecified)
EC50 [1]: > 380 µM (inactive) | AC50 [2]: > 380 µM (inactive)

COc1cc2c(cc1OC)[C@]13CC[N@+]4(C)CC5=CCO[C@H]6CC(=O)N2[C@@H]1[C@@H]6[C@@H]5C[C@]34O
AC50 [9]: 1 µM (inconclusive)

COc1ccccc1N1CCN(CCN2C(=O)CC3(CCCC3)CC2=O)CC1 [BMY-7378]
AC50 [9]: 20 µM (inconclusive) and 39.8 µM (inconclusive)

COc1ccc(OC)c(N(CC(=O)N2CCc3ccccc3C2)S(C)(=O)=O)c1
AC50 [4]: 15.8 µM (inconclusive) | AC50 [7]: 12.6 µM (inconclusive) | AC50 ([5]; read-out: AC50): 11.2 µM (inconclusive)

N#Cc1cccc(-c2nc(Nc3ccncc3)c3ccccc3n2)c1
AC50 [7]: 1.58 µM (inconclusive) | AC50 [9]: 0.501 µM (inconclusive)

COC(=O)c1c(C)ccc2c(O)c3c(cc12)C(=O)c1c2c(cc(O)c1C3=O)[C@@]1(C)O[C@@](C)(O2)[C@@H](O)[C@H](N(C)C)[C@H]1O
AC50 [4]: 5.01 µM (inconclusive) | AC50 [7]: 2.51 µM (inconclusive) | AC50 ([5]; read-out: AC50): 3.98 µM (inconclusive)

O=C(Nc1cccc(F)c1)N1CCC2(CC1)CCN(C(=O)c1ccncc1)CC2
AC50 [9]: 12.6 µM (inconclusive)

O=C(C/C=N\OCc1c(Cl)cccc1Cl)Oc1ccc(Cl)cc1Cl
EC50 [1]: 7.56 µM (active) | AC50 [2]: 21.8 µM (active)

O=c1c2c(n3cnnc3n1-c1ccccc1)-c1ccccc1CC21CCCCC1
AC50 [5]: inconclusive | AC50 [9]: 15.8 µM (inconclusive)
